These results are taken from PubChem BioAssay AID464 (The Scripps Research Institute Molecular Screening Center, 2006).

Activity calls are given as the source filed them.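 The calls were made as follows: active = Compounds that kill half the cells at a concentration of 5 micromolar or below, from the fitted or estimated CC50; inactive = CC50 above 5 micromolar.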

For the assay, the system named is Jurkat E6.1 viability, ATP luminescence, 48 h. The assay can be described thus: Jurkat E6.1 cell cytotoxicity, CC50 determination, dose response, cytotoxicity control, ATP luminescence, 48 h, 60K MLSMR (AID 464).
Broadly, the CC50 is the concentration at which the toxic effect on the cells reaches its halfway point. Regarding `O=c1oc2ccccc2cc1NCc1ccccc1O`, the CC50 is > 40 µM (inactive). `Cc1c(C(=O)OCCOC(C)C)[nH]c2c1C(=O)CC(c1ccco1)C2` (stereo not drawn): the CC50 was 0.156 µM. The result for `O=C(N1CCN(c2ccccn2)CC1)N1c2ccccc2Sc2ccccc21` reads 0.669 µM; that for `Cc1nc(CNS(=O)(=O)c2ccc(Oc3ccccc3)cc2)cs1`, 10.6 µM (inactive); that for `CC(C)Oc1cc(O)c2c(=O)c(-c3ccc(O)cc3)coc2c1`, 11 µM (inactive).

As to `c1ccc(OCCCCn2cnc3ccccc32)cc1`, the CC50 was 20.3 µM (inactive). With `COc1ccc(C(NC(C)=O)c2ccc3cccnc3c2O)c(OC)c1` (stereo not drawn), the CC50 is 3.15 µM. Take `O=C(CCCc1nc(-c2ccc(Cl)cc2)no1)Nc1cccnc1`: the CC50 was 5.56 µM (inactive).

`Cc1nn(-c2nc3ccccc3s2)c(C)c1Oc1ccccc1O`: the CC50 was > 40 µM (inactive). Next, `CCC1CCCCN1S(=O)(=O)c1ccc(C(=O)Nc2nnc(-c3cccs3)o2)cc1` (stereo not drawn): 11.6 µM (inactive); `CCOC(=O)c1[nH]c(C)c(C(=O)Nc2ccccc2F)c1C`: 1.42 µM; `COc1cc(C2=NOC(C(=O)NCc3ccc(F)cc3)C2)cc(OC)c1OC` (stereo not drawn): 0.347 µM. Next, `CC1CC(C)CN(S(=O)(=O)c2ccc(C(=O)NCCCn3ccnc3)cc2)C1` (stereo not drawn): 1.08 µM; `COC(=O)c1ccc(Oc2cc(C)nc(-n3nc(C)cc3C)n2)cc1`: 0.112 µM; `O=C(Nc1cc(N2CCOCC2)ncn1)NC1(C(F)(F)F)Oc2ccc(Cl)cc2O1` (stereo not drawn): 4.81 µM. Next, `COc1ccc(C)c(Cn2c(-c3nonc3N)nc3ccccc32)c1`: 1.97 µM; `CCOC(=O)C1CCN(CC(=O)Nc2c(C(=O)OC)[nH]c3ccc(Cl)cc23)CC1`: 31.2 µM (inactive); `COc1cc(C2=NOC(C(=O)NCc3ccco3)C2)cc(OC)c1OC` (stereo not drawn): 2.21 µM.

Take `CCn1c(=O)c(C(=O)Nc2nc3ccccc3[nH]2)c(O)c2ccccc21`: the CC50 was 14.3 µM (inactive). The result for `CCCn1c(NC(=O)c2cccc(S(=O)(=O)N3CCCC3)c2)nc2ccccc21` reads > 40 µM (inactive); that for `CCCCOc1ccccc1C1CC(=O)NC2=C1C(=O)CCC2` (stereo not drawn), 0.872 µM. Next, `O=C(Nc1nc(-c2ccc3c(c2)OCO3)cs1)c1ccncc1`: > 40 µM (inactive).

For `O=C(Oc1ccc2c(c1)OCO2)c1cc2c(s1)CCC2`, the CC50 was > 40 µM (inactive). The result for `CCCCN(C)S(=O)(=O)c1ccc(C(=O)Nc2nnc(CSC)o2)cc1` reads 27.9 µM (inactive); that for `Cc1c(C(=O)OC2CCCC2)[nH]c2c1C(=O)CC(c1ccco1)C2` (stereo not drawn), 0.167 µM; that for `CCOC(=O)CS(=O)(=O)c1nc(-c2ccccc2)cc(C(F)(F)F)n1`, 3.42 µM. The result for `CCOc1cc(N2CCOCC2)c(OCC)cc1NC(=O)COc1cccc2cccnc12` reads 9.13 µM (inactive); that for `CS(=O)(=O)N1CCc2cc(S(=O)(=O)Nc3ccc4c(c3)OCCO4)ccc21`, 29.1 µM (inactive). Next, `Cc1nn(C)c(C)c1CNC(=O)c1nn2c(c1Cl)NC(c1cccs1)CC2C(F)(F)F` (stereo not drawn): 15.2 µM (inactive); `Cc1cccc(N2CCN(C(=O)c3ccc(Cl)c(S(=O)(=O)NCc4ccco4)c3)CC2)c1C`: 9.8 µM (inactive); `COC(=O)/C=C/S(=O)(=O)c1ccc(NC(C)=O)cc1`: 2.31 µM. Turning to `C=CCN(CC=C)S(=O)(=O)c1ccc2nc(NC(=O)C(C)C)sc2c1`, the CC50 is 3.72 µM. Consider `COc1ccc(N2CCn3c2nc2c3c(=O)n(CCCc3ccccc3)c(=O)n2C)c(OC)c1`, for which the CC50 was > 40 µM (inactive).

In the case of `C=CCNc1nc2c(c(=O)n(C)c(=O)n2C)n1CCCCCC`, the CC50 was 2.76 µM. Next, `COc1cc(C(=O)N2CCN(c3cc(Cl)ccc3Cl)CC2)cc(OC)c1OC`: 0.134 µM. The result for `Cc1ccc(C)c(N2CCN(C(=O)c3ccc(CS(=O)(=O)c4ccccc4C)o3)CC2)c1` reads 14.2 µM (inactive); that for `COC(=O)c1[nH]c2c(c1C)C(=O)CC(c1ccccc1)C2` (stereo not drawn), 0.391 µM; that for `CSc1nc2nc3c(c(=O)n2[nH]1)CN(Cc1ccccc1)CC3`, > 40 µM (inactive). Next, `Oc1ccc(N=Cc2ccc(O)c(O)c2)cc1`: 25.9 µM (inactive); `Cc1nc(C)c2c(=O)cc(-c3ccccc3)[nH]c2n1`: 4.05 µM; `COC(=O)c1[nH]c2c(c1C)C(=O)CC(c1cccs1)C2` (stereo not drawn): 0.677 µM.

For the compound `Cc1nn(Cc2c(Cl)cccc2Cl)c(C)c1NC(=O)c1cc(C(C)C)on1`, the CC50 was > 40 µM (inactive). Next, `c1ccc(/N=C2\N=C(Nc3ccccn3)c3ccccc32)nc1`: 1.12 µM; `CCCCCCOc1ccc(/C(N)=N/O)cc1`: 6.87 µM (inactive); `CCC(=O)Nc1nc2ccccc2n1Cc1ccc(C)cc1`: > 40 µM (inactive). The result for `COC(=O)c1ccccc1NC(=O)Cn1c(-c2nonc2N)nc2ccccc21` reads 0.245 µM. Regarding `Cc1ccc(C)c2[nH]c(=O)c(CN(CCN3CCCC3)C(=O)Nc3cccc(Cl)c3)cc12`, the CC50 is > 40 µM (inactive). Next, `CCCS(=O)(=O)c1nnnn1-c1cccc(OC)c1`: 1.73 µM. Next, `CCc1nnc(NC(=O)CSc2nnc(-c3ccccc3O)n2-c2ccc(C)cc2C)s1`: 4.43 µM; `Cc1cc(C(=O)Nc2sc3c(c2C#N)CCC3)no1`: 6.7 µM (inactive).

Regarding `Cc1c(C(=O)N2CCCCC2)oc2ccc(S(=O)(=O)N3CC(C)CC(C)C3)cc12` (stereo not drawn), the CC50 is 15.9 µM (inactive). The result for `O=S(=O)(CCSc1nc2ccccc2o1)c1nc2ccccc2s1` reads 7.25 µM (inactive); that for `COc1cc(C2C3=C(Nc4ncnn42)c2ccccc2CC3)cc(OC)c1OC` (stereo not drawn), 3.67 µM; that for `Cc1cc(=O)oc2cc(OCC(=O)N3c4ccccc4CC3C)ccc12` (stereo not drawn), 0.756 µM.

`CN(C)c1ccc2c(c1)OC(N)=C(C#N)C2c1cccc(F)c1` (stereo not drawn): the CC50 is 0.106 µM.

For `O=C(CCNc1ccc(F)c(Cl)c1)c1ccco1`, the CC50 was > 13 µM (inactive). The result for `COc1ccc2c(c1)sc1nc(-c3ccccc3)cn12` reads 0.75 µM; that for `COc1ccc(OC)c(C2CC(=O)c3c([nH]c(C(=O)OC(C)C)c3C)C2)c1` (stereo not drawn), 1.08 µM; that for `O=C(NCc1cccnc1)NC1(C(F)(F)F)Oc2ccc(Cl)cc2O1` (stereo not drawn), 8.08 µM (inactive). Next, `CC(C)Cn1c(N)c(C(=O)CSc2ccc3c(c2)OCCO3)c(=O)n(C)c1=O`: > 40 µM (inactive); `Cn1cc(/C(Cc2ccccc2)=N\O)c2ccccc21`: 12.9 µM (inactive); `CS(=O)(=O)N1CCc2cc(-c3csc(NC(=O)Cc4cccs4)n3)ccc21`: 19.1 µM (inactive). Next, `CCOC(=O)c1[nH]c(C)c(C(=O)N2CCc3ccccc32)c1C`: 0.284 µM; `O=C(NCc1cccc(F)c1)c1noc2c1CCCC2`: 8.73 µM (inactive). Take `CC(=O)N1CCc2c(sc(NC(=O)c3ccc4c(c3)OCCO4)c2C#N)C1`: the CC50 is 2.6 µM.

`CC1=C(C(=O)OCc2ccc3c(c2)OCO3)C(c2ccc(Cl)cc2)NC(=O)N1` (stereo not drawn): the CC50 was 12.6 µM (inactive). Next, `O=C(c1cccc(F)c1)N1CCN(c2cccc(Cl)c2)CC1`: 4.55 µM; `Cc1ccc(C(=O)N2CCN(c3cccc(Cl)c3)CC2)cc1C`: 19.1 µM (inactive); `Cc1cc(NC(=O)CSc2nnc3c(C)cc4c(C)ccc(C)c4n23)no1`: 3.83 µM. Turning to `CC(=O)c1cn(CC(=O)Nc2ccccc2)c2ccccc12`, the CC50 was 12.6 µM (inactive). Next, `Cc1ccc(C)c(-n2nnnc2Sc2nnnn2-c2ccccc2)c1`: 5.87 µM (inactive). The result for `COc1cc(CSc2nnnn2-c2ccc(C)cc2)cc(OC)c1OC` reads 2.38 µM; that for `Cc1c(C(=O)OCc2ccccc2)[nH]c2c1C(=O)CC(c1ccco1)C2` (stereo not drawn), 0.499 µM. Next, `Cc1cccc(N2CCN(c3cccc(C)c3)C2c2cccnc2)c1`: 15.8 µM (inactive); `CCCCn1c(CN(C)Cc2ccccc2)nc2c1c(=O)n(C)c(=O)n2C`: 14.8 µM (inactive); `Cc1ccc(OCCN2CCN(C(=O)CCC(=O)Nc3nnc(C(C)C)s3)CC2)cc1`: 5.08 µM (inactive). Consider `CCCCn1c(CN2CCN(c3ccccc3)CC2)nc2c1c(=O)n(C)c(=O)n2C`, for which the CC50 was 10.4 µM (inactive).

Consider `C=CCN(C(=O)c1ccccc1)c1ccc(OC)cc1`, for which the CC50 was 9.5 µM (inactive). Next, `CC(=O)Nc1ccccc1OCC(=O)c1cc(C)n(Cc2cccs2)c1C`: 0.16 µM. The result for `CC(C)OCCCNc1ncnc2c1[nH]c1ccc(F)cc12` reads 2.02 µM; that for `COc1cc(NS(=O)(=O)c2ccc3c(c2)oc(=O)n3C)cc(OC)c1OC`, 5.88 µM (inactive).

Take `CCCSc1nnc(Sc2nnnn2-c2ccccc2)s1`: the CC50 is 1.28 µM.

As for `COc1ccc(-c2nc3cc(NC(=O)Cc4ccc(OC)c(OC)c4)ccc3o2)cc1`, the CC50 was > 40 µM (inactive). Take `Cn1ncc2c(Nc3ccc(-c4ccccc4)cc3)ncnc21`: the CC50 was > 40 µM (inactive). The result for `Cc1cc(C)n2nc(SCC(=O)c3cc(C)n(-c4cc(C)on4)c3C)nc2n1` reads 29.4 µM (inactive). For `CCn1c(NC(=O)c2cccc(Cn3cc(Cl)cn3)c2)nc2ccccc21`, the CC50 was > 40 µM (inactive). On to `Cc1nc2sccn2c1-c1csc(NCc2ccccc2)n1`, for which the half-maximal cytotoxic concentration (CC50) is 4.81 µM. Next, `CCOc1ccc(-c2cc(C(=O)O)c3ccccc3n2)c(OCC)c1`: > 40 µM (inactive); `O=C(Nc1nc(-c2ccccc2)cs1)C1CCCN(S(=O)(=O)c2ccccc2)C1` (stereo not drawn): 20.9 µM (inactive).

Regarding `CCOC(=O)c1c(C)c(C(=O)Nc2ccc(N(C)C)cc2)c(C)n1CC`, the CC50 was 5.84 µM (inactive). The result for `COc1ccc(NS(=O)(=O)c2cc(C)ccc2NC(=O)c2cc(C)oc2C)cc1` reads 0.191 µM; that for `CCOC(=O)C1=C(CNCc2ccc(C)cc2)NC(=O)NC1c1ccc(OC)cc1` (stereo not drawn), > 40 µM (inactive); that for `Cc1cc(NC(=O)CSc2nc3ccccc3c(=O)n2C2CCCC2)no1`, 0.469 µM.
